Data on 14 compounds can be found in article PMC4636305, “Identification of Small-Molecule Inhibitors against Meso-2, 6-Diaminopimelate Dehydrogenase from Porphyromonas gingivalis” (PLoS ONE, 2015).

The target in test [1] is Meso-diaminopimelate dehydrogenase (m-Ddh) from P. gingivalis (Porphyromonas gingivalis, UniProt Q7MW40). Briefly: m-Ddh kinetic assay, inhibitor screening and IC50 determination. To be noted: for IC50: 400 μM m-DAP, 180 μM NADP+, pH 10.5, 25°C, three independent experiments; for IC50 with addition of Triton-X 100 versus without: .01% Triton-X 100, test for aggregation-based inhibition; for inhibition at 3000 µM: read-out: % inhibition of enzymatic activity at 3 mM. The class given is biochemical. The method, then: (§1) The enzymatic activity for m-Ddh was determined by observing the standard oxidative deamination reaction of the substrate meso-diaminopimelate. The reaction contained 400 μM of meso-diaminopimelate (Sigma-Aldrich, St. Louis, MO), 180 μM NADP^+ (Sigma-Aldrich, St. Louis, MO), 200 mM glycine-KCl-KOH buffer (pH 10.5), and the enzyme in a final volume of 1 ml. The reaction was initiated with the addition of NADP^+. The reaction velocity was calculated from the increase in absorbance at 340 nm, spectrophotometrically monitored at 25°C, where one unit of enzyme was defined as the amount of enzyme catalyzing the formation of […] of NADPH per min.
Chain of Meso-diaminopimelate dehydrogenase (m-Ddh) from P. gingivalis (Q7MW40 entry or part of it): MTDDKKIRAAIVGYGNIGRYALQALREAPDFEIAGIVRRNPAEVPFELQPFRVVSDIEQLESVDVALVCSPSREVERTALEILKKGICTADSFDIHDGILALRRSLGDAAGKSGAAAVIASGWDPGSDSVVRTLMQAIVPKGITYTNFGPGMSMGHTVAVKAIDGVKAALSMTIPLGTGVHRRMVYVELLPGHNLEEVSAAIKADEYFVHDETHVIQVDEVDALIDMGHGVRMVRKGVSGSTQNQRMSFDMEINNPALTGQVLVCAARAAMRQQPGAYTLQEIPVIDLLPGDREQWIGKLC
A range of concentrations (0–3 mM) of each small-molecule compound inhibitor were added to the standard reaction and the percent of m-Ddh enzymatic inhibition was measured by the kinetic assay described above. Percent inhibition was determined by the formula: (rateofreactionnoinhibitor)−(rateofreactioninhibitor)/rateofreactionnoinhibitor×100. The concentration of each compound inhibitor which caused 50% enzymatic inhibition (IC50) was calculated using PRISM v6.04 software (Graphpad, San Diego, CA) from three independent experiments.

Test [2] relates to P. gingivalis. Kind of test: MIC, broth microdilution. It counts as cell-based, Porphyromonas gingivalis. The method, then:
Minimal Inhibitory Concentration (MIC) assays were performed using a broth microdilution method. P. gingivalis cells were grown overnight and the following day diluted 1/10 into fresh medium. Cells were allowed to grow to mid-log phase (OD600 ≈ 0.5). Compounds were serially diluted in 96-well microtiter plates (Jet Biofil, Genesee Scientific, San Diego, CA) and an aliquot of the cell suspension was added to each well with the compound inhibitor sample for a final cell count of 1×10^5 CFU/ml. Plates were incubated for five days at 37°C in anaerobic conditions.
Background: Dilution methods test growth across graded concentrations, often in twofold steps.

Test [3] has as its system P. gingivalis. Briefly: MBC, plating of MIC wells without visible growth. The class given is cell-based, Porphyromonas gingivalis. To be noted: for MBC: Porphyromonas gingivalis, 168 h, plated 7 days, anaerobic, n = 3. The method, then: Samples were plated on tryptic soy agar plates supplemented with 5% sheep blood (Becton, Dickinson, Franklin Lakes, NJ) and incubated at 37°C in anaerobic conditions for 7 days.

Test [4] deals with S. sanguinis. Briefly: MIC, broth microdilution. The class given is cell-based, Streptococcus sanguinis. To be noted: for MIC: Streptococcus sanguinis, S. sanguinis, lacks the target m-Ddh, n = 3; for S. sanguinis MIC relative to MIC of P. gingivalis: selectivity.
In test [5] the test system is P. gingivalis. Kind of test: Time-kill assay. It counts as cell-based, Porphyromonas gingivalis. To be noted: for reduction of viable P. gingivalis cell count: 5× MIC. The method, then: P. gingivalis cells were grown overnight and the following day diluted 1/10 into fresh medium. Cells were allowed to grow to mid-log phase (OD600 ≈ 0.5) then diluted to a final cell suspension of 1×10^5 CFU/ml. Compounds were added at a concentration of 5x the MIC determined from the 96-well broth microdilution assay. Samples were taken at different time intervals (0, 0.25, 0.5, 1, 2, 3, 4, 6 and 24 hours) and plated on tryptic soy agar plates supplemented with 5% sheep blood (Becton, Dickinson, Franklin Lakes, NJ) using an automated Eddy Jet spiral plater (Neutec Group, Farmingdale, NY). Plates were incubated at 37°C in anaerobic conditions for 7 days.

The test system of test [6] is P. gingivalis cells. Kind of test: SEM analysis of compound exposed cells. To be noted: treated P. gingivalis cells; Compounds 4 and 5 at 5x MIC. The class given is cell-based, Porphyromonas gingivalis. As to the method: Untreated or treated P. gingivalis cells were deposited onto a 0.1 μm disposable Millipore filter to remove medium, and samples were fixed using 2% glutaraldehyde in 0.1 M sodium cacodylate buffer (pH 7.4) for 30 min, followed by 1% osmium tetroxide in 0.1 M sodium cacodylate buffer (pH 7.4). Samples embedded in the filters were then dehydrated in ethanol followed by hexamethyldisilazane (HMDS) and allowed to air-dry. The filters were sectioned and mounted onto stubs and coated with gold for three minutes (EMS– 550 Automated Sputter Coater, Electron Microscopy Sciences, Hatfield, PA). Micrographs were taken at 30,000× total magnification using a Zeiss EVO 50 XVP scanning electron microscope (Carl Zeiss, Peabody, MA).

Test [7] has as its system m-Ddh. Kind of test: Determination of kinetic parameters of m-Ddh. It counts as biochemical, Porphyromonas gingivalis. The note with it: pH 10.5, 25°C, other substrate held at 0.5 mM; for Km: read-out: apparent Km. As to the method:
as §1
Initial velocity measurements for m-DAP and NADP^+ were determined at 25°C in a similar reaction for the standard oxidative deamination reaction assay. The reaction contained 200 mM glycine-KCl-KOH buffer (pH 10.5) with m-DAP as the variable substrate with concentrations between 0.001 mM and 1 mM and NADP^+ held constant at a saturating concentration of 0.5 mM or NADP^+ as the variable substrate with concentrations between 0.01 mM to 1 mM and m-DAP held constant at 0.5 mM. Km and Vmax values were determined through non-linear fitting. All assays were performed in triplicates and non-linear fitting Michaelis-Menten data were calculated from Graphpad Prism version 5.04 (Graphpad, San Diego, CA).

The subject of test [8] is m-Ddh. On the set-up: method as in PMID 21616177. To be noted: C. thermocellum m-Ddh; cited from earlier work.
Where [9] appears, read: compound at 3 mM, initial screen.
Setting [10] is: Porphyromonas gingivalis, 120 h, five days, 37°C, anaerobic, n = 3.

In brackets after ≈: the same amount, converted by molar mass. Entries after “also recorded” stand apart in the source; their conditions may differ. Like-named read-outs stand apart in the source and are kept apart here. Residues, ends and D or L forms follow the SMILES beside them. Some results are limits rather than exact numbers.

Consider `COc1ccc(S(=O)(=O)Nc2nc3ccccc3nc2Nc2cccc(C(=O)O)c2)cc1` [Compound 4], for which, in test [1], the IC50 was 157 ± 26 µM and the “IC50 with addition of Triton-X 100 versus without” value is reported as “no difference in activity”. Besides, the inhibition at 3000 µM in test [1] (setting [9]) was ≥ 90%. Inhibition of growth in test [2] (setting [10]) (MIC) required 250 µM (≈ 113 µg/mL). In test [3], the “MBC to MIC ratio” value is “less than 4” and the MBC turned out to be 374 µM (≈ 168 µg/mL). For the same compound, in test [4], the MIC turned out to be 1740 µM (≈ 784 µg/mL) and the “S. sanguinis MIC relative to MIC of P. gingivalis” value stood at 7 ×. Moreover, in test [5] (5x MIC, after six hours of treatment), the “P. gingivalis cell count” value was “maintained a low cell count”. The “reduction of viable P. gingivalis cell count” value in test [5] (within 6 h of exposure) is 2 log10 CFU /ml. In addition, in test [6], the “cellular structure by SEM” value was “alteration of the cellular structure”.

Take `Cc1cc(S(=O)(=O)Nc2cc(SCCC(=O)O)c(O)c3ccccc23)ccc1F` [Compound 5]: in test [1], the IC50 worked out at 310 ± 23 µM and the “IC50 with addition of Triton-X 100 versus without” value is given as “no difference in activity”. Also, in test [1] (setting [9]), the inhibition at 3000 µM was ≥ 90%. For the same compound, the lowest concentration to inhibit growth in test [2] (setting [10]) (MIC) was 167 µM (≈ 72.9 µg/mL). The compound further registered an MIC in test [2] (five days, 37°C, anaerobic, n = 3) of 167 µM (≈ 72.7 µg/mL). For the same compound, in test [3], the “MBC to MIC ratio” value is given as “less than 4” and the MBC was 254 µM (≈ 111 µg/mL). In addition, in test [4], inhibition of growth (MIC) required 305 µM (≈ 133 µg/mL) and the “S. sanguinis MIC relative to MIC of P. gingivalis” value is listed as “almost double”. In addition, in test [5] (5x MIC, after two hours of exposure), the “P. gingivalis cell viability” value was “no viable cell count; also recorded: complete elimination”. Also, the “reduction of viable P. gingivalis cell count” value in test [5] (after 2 h of exposure) turned out to be 5 log10 CFU/ml. The “cellular structure by SEM” value in test [6] is reported as “alteration of the cellular structure”.

In test [1], `O=C(O)CCC(=O)Nc1ccc(S(=O)(=O)Nc2cnc3ccccc3n2)cc1` [Compound 6] returned a half-maximal inhibitory concentration (IC50) of 356 ± 16 µM. For the same compound, in test [1], the “IC50 with addition of Triton-X 100 versus without” value was “no difference in activity”. Besides, the inhibition at 3000 µM in test [1] (setting [9]) is ≥ 90%. The MIC is 2820 µM (≈ 1130 µg/mL) in test [2] (setting [10]); > 2000 µM in test [2] (Porphyromonas gingivalis, bound stated); 3310 µM (≈ 1330 µg/mL) in test [4].

For the compound `CCC[C@@H]1CN(c2nc(C)ccc2C(=O)O)C[C@H]1C(=O)O` [Compound 7], half-maximal inhibition in test [1] (IC50) was put at 1160 ± 175 µM. The inhibition at 3000 µM in test [1] (setting [9]) is ≥ 90%.

`NCc1[nH]cc(CCC(=O)O)c1CC(=O)O` [Compound 8]: the “% inhibition of enzymatic activity at 3 mM” value (“% inhibition” below) in test [1] (setting [9]) was “No inhibition at 3 mM”.

On to `O=C(O)c1sccc1S(=O)(=O)Nc1cccc2[nH]ncc12` [Compound 9], for which the “% inhibition” value in test [1] (setting [9]) was “No inhibition at 3 mM”.

On to `N[C@@H](CC(=O)O)C(=O)N[C@@H](Cc1ccccc1)C(=O)O` [Compound 10] (H-Asp-Phe-OH), for which, in test [1], the inhibition at 3000 µM came out at 2%.

Take `O=C(O)CCCC(O)(O)C(=O)O` [Compound 11]: in test [1] (setting [9]), the inhibition at 3000 µM worked out at 13%.

Consider `O=C(O)c1cccc(S(=O)(=O)Nc2ccnc(Sc3ccccn3)c2)c1` [Compound 12], for which the “% inhibition” value in test [1] (setting [9]) is on record as “No inhibition at 3 mM”.

For `O=C(O)c1cccc(NS(=O)(=O)c2ccc(O)c(C(=O)O)c2)c1` [Compound 13], in test [1] (setting [9]), the inhibition at 3000 µM was 6%.

Turning to `Cc1n[nH]c(C)c1S(=O)(=O)Nc1cccc(NS(=O)(=O)c2ccccc2)c1` [Compound 14], in test [1] (setting [9]), the inhibition at 3000 µM was 17%.

Consider `NC(=O)c1ccc[n+]([C@@H]2O[C@H](COP(=O)([O-])OP(=O)(O)OC[C@H]3O[C@@H](n4cnc5c(N)ncnc54)[C@H](OP(=O)(O)O)[C@@H]3O)[C@@H](O)[C@H]2O)c1` [NADP^+], for which, in test [7], the maximum rate (Vmax) is 91.95 nmol/s and the Km amounted to 60 µM. In addition, the Km in test [8] was 90 µM.

Consider `CC1(C)S[C@@H]2[C@H](NC(=O)[C@H](N)c3ccccc3)C(=O)N2[C@H]1C(=O)O` [ampicillin, reference compound], for which the “cellular structure by SEM” value in test [6] is on record as “altered morphology”.

In the case of `N[C@H](CCC[C@H](N)C(=O)O)C(=O)O` [m-DAP, meso-diaminopimelate], in test [7], the Vmax was 130.1 nmol/s and the Km is 370 µM.

One may read the IC50 as the concentration at which inhibition is half-maximal. Low values mean greater potency, high ones weaker potency. As usually defined, the inhibition is the change of the read-out against control, counted positive when it falls. One may read the MIC as the smallest concentration in the dilution series that meets the test's criterion for growth inhibition. A low value points to a more susceptible organism. The MBC is the lowest tested concentration that kills the bacteria rather than only halting them. One may read the Vmax as the top rate of the reaction or transport when substrate is in excess. What is called Km is the substrate concentration at which the rate is half of its maximum.
